16 compounds from patent US11034725B2, “Compositions and methods for treating cardiovascular disease” (Genentech, Inc., priority 2016, dated 2021) can be followed below.

Like-named read-outs stand apart in the source and are kept apart here. Bridge positions count the residues as written; N and C are the ends. Square brackets hold non-standard residues; d marks the D form. Peptide text beside a SMILES is read from it. * marks the point of attachment. Pentanoyl = CCCCC(=O)*; Ava = NCCCCC(=O)O

For assay [1], the target named is T1, PCSK9Δhelix (Homo sapiens, UniProt Q8NBP7).
T1 construct: Human PCSK9 construct M1-Q692 with an engineered TEV site (residue deletion Y166, R167); made in house; host or cells: CHO
Description: PCSK9Δhelix/Ab20 TR-FRET binding assay. Particulars: TR-FRET, read-out: PCSK9Δhelix/Ab20 IC50.

Assay [2] concerns His-EGF(A)-Fc. In words: His-EGF(A)-Fc TR-FRET counterscreen. On the technique in general: In TR-FRET formats the signal depends on donor and acceptor labels being close together.
For assay [3], the target named is PCSK9 (Homo sapiens, UniProt Q8NBP7). Description: PCSK9/EGF(A) TR-FRET binding assay. Particulars: TR-FRET, read-out: PCSK9/EGF(A) IC50.
[4] abbreviates: Table 8D, disulfide-cyclized extension peptides.
Where [5] appears, read: TR-FRET counterscreen, Table 8D, * = some inhibition at highest concentrations, not sufficient to fit an IC50.

PCSK9, sequence (Q8NBP7 153-692): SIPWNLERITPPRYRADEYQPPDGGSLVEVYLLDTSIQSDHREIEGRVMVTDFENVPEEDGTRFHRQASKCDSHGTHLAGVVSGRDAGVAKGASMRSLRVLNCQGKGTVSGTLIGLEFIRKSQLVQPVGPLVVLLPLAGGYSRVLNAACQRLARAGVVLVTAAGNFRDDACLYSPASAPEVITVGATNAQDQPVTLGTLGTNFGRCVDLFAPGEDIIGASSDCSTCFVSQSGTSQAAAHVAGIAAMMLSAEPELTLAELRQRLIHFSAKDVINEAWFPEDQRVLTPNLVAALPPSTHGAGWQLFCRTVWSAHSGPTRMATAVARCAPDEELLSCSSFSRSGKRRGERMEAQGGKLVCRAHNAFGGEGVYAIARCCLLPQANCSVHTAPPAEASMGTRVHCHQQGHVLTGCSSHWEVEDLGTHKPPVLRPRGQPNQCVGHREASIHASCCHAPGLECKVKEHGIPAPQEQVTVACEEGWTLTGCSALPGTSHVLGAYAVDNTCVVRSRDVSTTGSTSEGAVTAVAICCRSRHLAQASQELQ
PCSK9, sequence (Q8NBP7 31-152 partner limits assumed): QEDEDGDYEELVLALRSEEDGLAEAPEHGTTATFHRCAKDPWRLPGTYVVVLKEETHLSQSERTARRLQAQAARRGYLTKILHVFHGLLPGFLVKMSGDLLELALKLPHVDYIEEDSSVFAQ
T1 sequence (Q8NBP7 with tags, fused parts or gaps limits assumed): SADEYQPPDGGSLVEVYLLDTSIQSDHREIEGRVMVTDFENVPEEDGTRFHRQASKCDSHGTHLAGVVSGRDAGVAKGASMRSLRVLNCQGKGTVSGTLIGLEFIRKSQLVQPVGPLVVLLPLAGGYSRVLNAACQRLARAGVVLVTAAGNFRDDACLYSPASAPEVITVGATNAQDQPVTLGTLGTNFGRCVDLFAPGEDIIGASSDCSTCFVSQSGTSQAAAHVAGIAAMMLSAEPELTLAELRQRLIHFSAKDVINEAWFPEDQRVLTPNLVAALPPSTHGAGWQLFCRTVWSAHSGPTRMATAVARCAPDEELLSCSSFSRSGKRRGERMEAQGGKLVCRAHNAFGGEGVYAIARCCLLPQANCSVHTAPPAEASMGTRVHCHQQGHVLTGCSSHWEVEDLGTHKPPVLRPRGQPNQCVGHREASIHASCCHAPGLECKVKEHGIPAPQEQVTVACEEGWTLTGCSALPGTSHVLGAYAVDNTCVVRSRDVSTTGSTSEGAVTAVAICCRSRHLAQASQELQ
T1 sequence (Q8NBP7 31-152 partner limits assumed): as the sequence (Q8NBP7 31-152 partner limits assumed) above

Consider `CC[C@H](C)[C@@H]1NC(=O)[C@H](CCCNC(=N)N)NC(=O)[C@H](CCCCN)NC(=O)[C@H](CC(C)C)NC(=O)[C@H](CC(N)=O)NC(=O)[C@H](Cc2c[nH]c3ccccc23)NC(=O)[C@H](CC(C)C)NC(=O)[C@@H](NC(=O)[C@H](Cc2ccccc2)NC(C)=O)CSSC[C@@H](C(=O)N[C@@H](CCC(=O)O)C(=O)N[C@@H](Cc2ccc(O)cc2)C(N)=O)NC(=O)[C@H](CCC(N)=O)NC(=O)[C@H](CO)NC(=O)CNC1=O` [Compound 95] (Ac-FCLWNLKRIGSQCEY-NH2; disulfide 2-13), for which the IC50 is 12.7 µM in assay [1] (setting [4]), above 50 µM in assay [2] (setting [5]) and above 50 µM in assay [3] (setting [4]).
Consider `CC[C@H](C)[C@@H]1NC(=O)[C@H](CCCNC(=N)N)NC(=O)[C@H](CCC(N)=O)NC(=O)[C@H](CC(C)C)NC(=O)[C@H](CC(N)=O)NC(=O)[C@H](Cc2c[nH]c3ccccc23)NC(=O)[C@@H]2CCCN2C(=O)[C@H](CC(C)C)NC(=O)[C@H](CCCNC(=N)N)NC(=O)[C@@H](NC(C)=O)CSSC[C@@H](C(N)=O)NC(=O)[C@H]2CCCN2C(=O)[C@H](CC(C)C)NC(=O)CNC1=O` [Compound 99] (Ac-CRLPWNLQRIGL[dP]C-NH2; disulfide 1-14), for which the IC50 in assay [1] (setting [4]) is 1.3 µM; in assay [2] (setting [5]), above 50 µM; in assay [3] (setting [4]) it was above 50 µM.
As to `CC[C@H](C)[C@@H]1NC(=O)[C@H](CCCNC(=N)N)NC(=O)[C@H](CCC(N)=O)NC(=O)[C@H](CC(C)C)NC(=O)[C@H](CC(N)=O)NC(=O)[C@H](Cc2c[nH]c3ccccc23)NC(=O)[C@@H]2CCCN2C(=O)[C@H](CC(C)C)NC(=O)[C@H](CCCNC(=N)N)NC(=O)[C@@H](NC(C)=O)CSSC[C@@H](C(N)=O)NC(=O)[C@@H]2CCCN2C(=O)[C@@H](CC(C)C)NC(=O)CNC1=O` [Compound 100] (Ac-CRLPWNLQRIG[dL]PC-NH2; disulfide 1-14), the IC50 in assay [1] (setting [4]), in assay [2] (setting [5]) and in assay [3] (setting [4]) was above 50 µM in each case.
In the case of `CC[C@@H](C)[C@H]1NC(=O)[C@H](CCCNC(=N)N)NC(=O)[C@H](CCC(N)=O)NC(=O)[C@H](CC(C)C)NC(=O)[C@H](CC(N)=O)NC(=O)[C@H](Cc2c[nH]c3ccccc23)NC(=O)[C@@H]2CCCN2C(=O)[C@H](CC(C)C)NC(=O)[C@H](CCCNC(=N)N)NC(=O)[C@@H](NC(C)=O)CSSC[C@@H](C(N)=O)NC(=O)[C@@H]2CCCN2C(=O)[C@H](CC(C)C)NC(=O)CNC1=O` [Compound 101] (Ac-CRLPWNLQR[dI]GLPC-NH2; disulfide 1-14), the IC50 in assay [1] (setting [4]), in assay [2] (setting [5]) and in assay [3] (setting [4]) was above 50 µM each time.
Turning to `CC[C@H](C)[C@@H]1NC(=O)[C@@H](CCCNC(=N)N)NC(=O)[C@H](CCC(N)=O)NC(=O)[C@H](CC(C)C)NC(=O)[C@H](CC(N)=O)NC(=O)[C@H](Cc2c[nH]c3ccccc23)NC(=O)[C@@H]2CCCN2C(=O)[C@H](CC(C)C)NC(=O)[C@H](CCCNC(=N)N)NC(=O)[C@@H](NC(C)=O)CSSC[C@@H](C(N)=O)NC(=O)[C@@H]2CCCN2C(=O)[C@H](CC(C)C)NC(=O)CNC1=O` [Compound 102] (Ac-CRLPWNLQ[dR]IGLPC-NH2; disulfide 1-14), the IC50 in assay [1] (setting [4]), in assay [2] (setting [5]) and in assay [3] (setting [4]) was above 50 µM throughout.
For `CC[C@H](C)[C@@H]1NC(=O)[C@H](CCCNC(=N)N)NC(=O)[C@@H](CCC(N)=O)NC(=O)[C@H](CC(C)C)NC(=O)[C@H](CC(N)=O)NC(=O)[C@H](Cc2c[nH]c3ccccc23)NC(=O)[C@@H]2CCCN2C(=O)[C@H](CC(C)C)NC(=O)[C@H](CCCNC(=N)N)NC(=O)[C@@H](NC(C)=O)CSSC[C@@H](C(N)=O)NC(=O)[C@@H]2CCCN2C(=O)[C@H](CC(C)C)NC(=O)CNC1=O` [Compound 103, Ac-CRLPWNLqRIGLPC-NH2] (Ac-CRLPWNL[dQ]RIGLPC-NH2; disulfide 1-14), the IC50 in assay [1] (setting [4]), in assay [2] (setting [5]) and in assay [3] (setting [4]) was above 50 µM each time.
As to `CC[C@H](C)[C@@H]1NC(=O)[C@H](CCCNC(=N)N)NC(=O)[C@H](CCC(N)=O)NC(=O)[C@@H](CC(C)C)NC(=O)[C@H](CC(N)=O)NC(=O)[C@H](Cc2c[nH]c3ccccc23)NC(=O)[C@@H]2CCCN2C(=O)[C@H](CC(C)C)NC(=O)[C@H](CCCNC(=N)N)NC(=O)[C@@H](NC(C)=O)CSSC[C@@H](C(N)=O)NC(=O)[C@@H]2CCCN2C(=O)[C@H](CC(C)C)NC(=O)CNC1=O` [Compound 104, Ac-CRLPWNlQRIGLPC-NH2] (Ac-CRLPWN[dL]QRIGLPC-NH2; disulfide 1-14), the IC50 in assay [1] (setting [4]), in assay [2] (setting [5]) and in assay [3] (setting [4]) was above 50 µM each time.
In the case of `CC[C@H](C)[C@@H]1NC(=O)[C@H](CCCNC(=N)N)NC(=O)[C@H](CCC(N)=O)NC(=O)[C@H](CC(C)C)NC(=O)[C@@H](CC(N)=O)NC(=O)[C@H](Cc2c[nH]c3ccccc23)NC(=O)[C@@H]2CCCN2C(=O)[C@H](CC(C)C)NC(=O)[C@H](CCCNC(=N)N)NC(=O)[C@@H](NC(C)=O)CSSC[C@@H](C(N)=O)NC(=O)[C@@H]2CCCN2C(=O)[C@H](CC(C)C)NC(=O)CNC1=O` [Compound 105] (Ac-CRLPW[dN]LQRIGLPC-NH2; disulfide 1-14), the IC50 in assay [1] (setting [4]), in assay [2] (setting [5]) and in assay [3] (setting [4]) was above 50 µM throughout.
As for `CC[C@H](C)[C@@H]1NC(=O)[C@H](CCCNC(=N)N)NC(=O)[C@H](CCC(N)=O)NC(=O)[C@H](CC(C)C)NC(=O)[C@H](CC(N)=O)NC(=O)[C@@H](Cc2c[nH]c3ccccc23)NC(=O)[C@@H]2CCCN2C(=O)[C@H](CC(C)C)NC(=O)[C@H](CCCNC(=N)N)NC(=O)[C@@H](NC(C)=O)CSSC[C@@H](C(N)=O)NC(=O)[C@@H]2CCCN2C(=O)[C@H](CC(C)C)NC(=O)CNC1=O` [Compound 106] (Ac-CRLP[dW]NLQRIGLPC-NH2; disulfide 1-14), the IC50 in assay [1] (setting [4]), in assay [2] (setting [5]) and in assay [3] (setting [4]) was above 50 µM in each case.
On to `CC[C@H](C)[C@@H]1NC(=O)[C@H](CCCNC(=N)N)NC(=O)[C@H](CCC(N)=O)NC(=O)[C@H](CC(C)C)NC(=O)[C@H](CC(N)=O)NC(=O)[C@H](Cc2c[nH]c3ccccc23)NC(=O)[C@H]2CCCN2C(=O)[C@H](CC(C)C)NC(=O)[C@H](CCCNC(=N)N)NC(=O)[C@@H](NC(C)=O)CSSC[C@@H](C(N)=O)NC(=O)[C@@H]2CCCN2C(=O)[C@H](CC(C)C)NC(=O)CNC1=O` [Compound 107] (Ac-CRL[dP]WNLQRIGLPC-NH2; disulfide 1-14), for which the IC50 in assay [1] (setting [4]), in assay [2] (setting [5]) and in assay [3] (setting [4]) was above 50 µM throughout.
`CC[C@H](C)[C@@H]1NC(=O)[C@H](CCCNC(=N)N)NC(=O)[C@H](CCC(N)=O)NC(=O)[C@H](CC(C)C)NC(=O)[C@H](CC(N)=O)NC(=O)[C@H](Cc2c[nH]c3ccccc23)NC(=O)[C@@H]2CCCN2C(=O)[C@@H](CC(C)C)NC(=O)[C@H](CCCNC(=N)N)NC(=O)[C@@H](NC(C)=O)CSSC[C@@H](C(N)=O)NC(=O)[C@@H]2CCCN2C(=O)[C@H](CC(C)C)NC(=O)CNC1=O` [Compound 108] (Ac-CR[dL]PWNLQRIGLPC-NH2; disulfide 1-14): the IC50 in assay [1] (setting [4]) is 28.2 µM; in assay [2] (setting [5]), above 50 µM; in assay [3] (setting [4]), above 50 µM.
Take `CC[C@H](C)[C@@H]1NC(=O)[C@H](CCCNC(=N)N)NC(=O)[C@H](CCC(N)=O)NC(=O)[C@H](CC(C)C)NC(=O)[C@H](CC(N)=O)NC(=O)[C@H](Cc2c[nH]c3ccccc23)NC(=O)[C@@H]2CCCN2C(=O)[C@H](CC(C)C)NC(=O)[C@@H](CCCNC(=N)N)NC(=O)[C@@H](NC(C)=O)CSSC[C@@H](C(N)=O)NC(=O)[C@@H]2CCCN2C(=O)[C@H](CC(C)C)NC(=O)CNC1=O` [Compound 109] (Ac-C[dR]LPWNLQRIGLPC-NH2; disulfide 1-14): the IC50 in assay [1] (setting [4]) is 1.67 µM; in assay [2] (setting [5]), above 50 µM; in assay [3] (setting [4]), above 50 µM.
Turning to `CCCCC(=O)N[C@@H](Cc1c[nH]c2ccccc12)C(=O)N[C@@H](CC(N)=O)C(=O)N[C@@H](CC(C)C)C(=O)N[C@H](C(=O)N[C@@H](CCCNC(=N)N)C(=O)N[C@H](C(=O)NCC(=O)N[C@@H](CC(C)C)C(=O)N[C@@H](CC(C)C)C(=O)N[C@@H](CCCNC(=N)N)C(N)=O)[C@@H](C)CC)C(C)C` [Compound 111] (Pentanoyl-WNLVRIGLLR-NH2), the IC50 is 4.9 µM in assay [1] (Example 7); above 50 µM in assay [2] (counterscreen, Example 7); above 50 µM in assay [3] (Example 7).
For the compound `CCCCC(=O)N[C@@H](Cc1c[nH]c2ccccc12)C(=O)N[C@@H](CC(N)=O)C(=O)N[C@@H](CC(C)C)C(=O)N[C@H](C(=O)N[C@@H](CCCNC(=N)N)C(=O)N[C@H](C(=O)NCC(=O)N[C@H](C(=O)N[C@H](C(=O)N[C@@H](CCCNC(=N)N)C(N)=O)[C@@H](C)O)[C@@H](C)O)[C@@H](C)CC)C(C)C` [Compound 113] (Pentanoyl-WNLVRIGTTR-NH2), the IC50 in assay [1] (Example 7) was above 50 µM; in assay [2] (counterscreen, Example 7) it was above 50 µM; in assay [3] (Example 7) it was above 50 µM.
In the case of `CCCCC(=O)N[C@@H](Cc1c[nH]c2ccccc12)C(=O)N[C@@H](CC(N)=O)C(=O)N[C@@H](CC(C)C)C(=O)N[C@H](C(=O)N[C@@H](CCCNC(=N)N)C(=O)N[C@H](C(=O)NCC(=O)N[C@H](C(=O)N[C@@H](CC(C)C)C(=O)N[C@@H](CCCNC(=N)N)C(N)=O)[C@@H](C)O)[C@@H](C)CC)C(C)C` [Compound 114] (Pentanoyl-WNLVRIGTLR-NH2), the IC50 is above 50 µM in assay [1] (Example 7); above 50 µM in assay [2] (counterscreen, Example 7); above 50 µM in assay [3] (Example 7).
For the compound `CC[C@H](C)[C@@H]1NC(=O)[C@H](CCCNC(=N)N)NC(=O)[C@H](CCC(N)=O)NC(=O)[C@H](CC(C)C)NC(=O)[C@H](CC(N)=O)NC(=O)[C@H](Cc2c[nH]c3ccccc23)NC(=O)[C@@H]2CCCN2C(=O)[C@H](CC(C)C)NC(=O)[C@H](CCCNC(=N)N)NC(=O)[C@@H](NC(C)=O)CSSC[C@@H](C(N)=O)NC(=O)CCCCNC1=O` [Compound 115] (Ac-CRLPWNLQRI[Ava]C-NH2; disulfide 1-12), the IC50 in assay [1] (setting [4]), in assay [2] (setting [5]) and in assay [3] (setting [4]) was above 50 µM in each case.
